Data: patent US20220396569A1 (Carmot Therapeutics, Inc., priority 2021, published 2022)

Target: T1, human GLP-1 receptor (Homo sapiens, UniProt P43220)
T1 construct: expressed in transfected cells
Experiment: GLP-1R cAMP Assay (HitHunter cAMP accumulation)
Assay type: cell-based
Settings: cAMP accumulation, CHO cells stably overexpressing human GLP-1 receptor, 30 min treatment; read-out: EC50
Method in brief: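 CHO cells stably expressing human GLP-1R, 10,000 cells/well in HBSS with 10 mM HEPES and 625 μM IBMX, were mixed with anti-cAMP antibody reagent. Compound was applied as a 20-point dose response in triplicate for 30 min. After lysis and overnight detection, luminescence was read and dose-response curves analysed.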

T1 sequence (P43220 24-463): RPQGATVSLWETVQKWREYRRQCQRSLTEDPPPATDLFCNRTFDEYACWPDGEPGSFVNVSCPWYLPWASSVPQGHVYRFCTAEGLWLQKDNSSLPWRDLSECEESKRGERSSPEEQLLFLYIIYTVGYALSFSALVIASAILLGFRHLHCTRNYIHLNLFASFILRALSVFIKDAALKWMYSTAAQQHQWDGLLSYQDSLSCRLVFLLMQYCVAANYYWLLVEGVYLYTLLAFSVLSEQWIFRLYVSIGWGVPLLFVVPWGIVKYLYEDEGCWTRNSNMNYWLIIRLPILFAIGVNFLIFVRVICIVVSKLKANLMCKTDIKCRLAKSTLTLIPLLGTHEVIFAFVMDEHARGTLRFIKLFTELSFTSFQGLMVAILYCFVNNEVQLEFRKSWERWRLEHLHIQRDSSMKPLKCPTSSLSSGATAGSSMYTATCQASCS

Row | EC50 | Compound
1 | < 0.05 µM | N#Cc1ccc(OCc2cc(Oc3cnc(Cc4nc5c(F)cc(C(=O)O)cc5n4C[C@@H]4CCO4)c(F)c3)ccn2)c(F)c1 [Compound 542, (S)-2-((5-((2-((4-Cyano-2-fluorophenoxy)methyl)pyridin-4-yl)oxy)-3-fluoropyridin-2-yl)methyl)-4-fluoro-1-(oxetan-2-ylmethyl)-1H-benzo[d]imidazole-6-carboxylic acid]
2 | < 0.05 µM | CCn1cncc1Cn1c(CN2CC(=Cc3cccc(COc4ccc(Cl)cc4Cl)c3)C2)nc2ccc(C(=O)O)cc21 [Compound 196]
3 | < 0.05 µM | O=C(O)c1cc(F)c2nc(CN3CCC(c4nc(COc5ccc(Cl)cc5F)ccc4F)C3)n(C[C@@H]3CCO3)c2c1 (stereo partly drawn) [Compound 457, 2-[(3-{6-[(4-chloro-2-fluorophenoxy)methyl]-3-fluoropyridin-2-yl}pyrrolidin-1-yl)methyl]-4-fluoro-1-{[(2S)-oxetan-2-yl]methyl}-1H-1,3-benzodiazole-6-carboxylic acid]
4 | < 0.05 µM | N#Cc1cc(F)ccc1OCc1cc([C@@H]2CCN(Cc3nc4ccc(C(=O)O)cc4n3C[C@@H]3CCO3)C2)ccc1F [Compound 447, 2-{[(3S)-3-{3-[(2-cyano-4-fluorophenoxy)methyl]-4-fluorophenyl}pyrrolidin-1-yl]methyl}-1-{[(2S)-oxetan-2-yl]methyl}-1H-1,3-benzodiazole-6-carboxylic acid]
5 | < 0.05 µM | N#Cc1ccc(OCc2nccc(Oc3ccc(Cc4nc5c(F)cc(C(=O)O)cc5n4C[C@@H]4CCO4)cc3F)n2)c(F)c1 [Compound 539, (S)-2-(4-((2-((4-cyano-2-fluorophenoxy)methyl)pyrimidin-4-yl)oxy)-3-fluorobenzyl)-4-fluoro-1-(oxetan-2-ylmethyl)-1H-benzo[d]imidazole-6-carboxylic acid]
6 | < 0.05 µM | O=C(O)c1ccc2nc(CN3CC(=Cc4ccnc(COc5ccc(Cl)cc5Cl)c4)C3)n(C[C@@H]3CCO3)c2c1 [Compound 190, 2-{[3-({2-[(2,4-dichlorophenoxy)methyl]pyridin-4-yl}methylidene)azetidin-1-yl]methyl}-1-{[(2S)-oxetan-2-yl]methyl}-1H-1,3-benzodiazole-6-carboxylic acid]
7 | < 0.05 µM | N#Cc1ccc(OCc2nc(C34CC3CN(Cc3nc5ccc(C(=O)O)cc5n3C[C@@H]3CCO3)C4)ccc2F)c(F)c1 (mixture of isomers) [Example 522, 2-((1-(6-((4-Cyano-2-fluorophenoxy)methyl)-5-fluoropyridin-2-yl)-3-azabicyclo[3.1.0]hexan-3-yl)methyl)-1-(((S)-oxetan-2-yl)methyl)-1H-benzo[d]imidazole-6-carboxylic acid]
8 | 0.05 to 0.5 µM | N#Cc1ccc(OCc2nc(C3=CCN(Cc4nc5ccc(C(=O)O)cc5n4CC4(CC(N)=O)CC4)C3)ccc2F)c(F)c1 [Compound 423, 1-{[1-(carbamoylmethyl)cyclopropyl]methyl}-2-[(3-{6-[(4-cyano-2-fluorophenoxy)methyl]-5-fluoropyridin-2-yl}-2,5-dihydro-1H-pyrrol-1-yl)methyl]-1H-1,3-benzodiazole-6-carboxylic acid]
9 | < 0.05 µM | O=C(O)c1ccc2nc(CN3CC[C@H](Oc4ccnc(COc5ccc(C(F)F)cc5F)c4)C3)n(C[C@@H]3CCO3)c2c1 [Compound 298, 2-{[(3S)-3-[(2-{[4-(difluoromethyl)-2-fluorophenoxy]methyl}pyridin-4-yl)oxy]pyrrolidin-1-yl]methyl}-1-{[(2S)-oxetan-2-yl]methyl}-1H-1,3-benzodiazole-6-carboxylic acid]
10 | 0.05 to 0.5 µM | O=C(O)c1ccc2nc(CN3CC=C(c4cccc(COc5ccc(Cl)cc5F)c4F)C3)n(C[C@@H]3CCO3)c2c1 [Compound 426, 2-[(3-{3-[(4-chloro-2-fluorophenoxy)methyl]-2-fluorophenyl}-2,5-dihydro-1H-pyrrol-1-yl)methyl]-1-{[(2S)-oxetan-2-yl]methyl}-1H-1,3-benzodiazole-6-carboxylic acid]
11 | < 0.05 µM | N#Cc1ccc(OCc2nc(C34CC3CN(Cc3nc5ccc(C(=O)O)cc5n3C[C@@H]3CCO3)C4)ccc2F)c(Cl)c1 (stereo partly drawn) [Compound 524, 2-[(1-{6-[(2-chloro-4-cyanophenoxy)methyl]-5-fluoropyridin-2-yl}-3-azabicyclo[3.1.0]hexan-3-yl)methyl]-1-{[(2S)-oxetan-2-yl]methyl}-1H-1,3-benzodiazole-6-carboxylic acid]
12 | < 0.05 µM | O=C(O)c1ccc2nc(CN3CC[C@@H](c4cccc(COc5ccc(Cl)cc5F)c4)C3)n(C[C@@H]3CCO3)c2c1 (single isomer, unassigned) [Example 411]
13 | < 0.05 µM | N#Cc1ccc(OCc2cccc(C3=CCN(Cc4nc5ccc(C(=O)O)cc5n4C[C@@H]4CCO4)C3)c2)c(F)c1 [Compound 400, 2-[(3-{3-[(4-cyano-2-fluorophenoxy)methyl]phenyl}-2,5-dihydro-1H-pyrrol-1-yl)methyl]-1-{[(2S)-oxetan-2-yl]methyl}-1H-1,3-benzodiazole-6-carboxylic acid]
14 | < 0.05 µM | O=C(O)c1ccc2nc(CN3CCC(c4cc(COc5ccc(Cl)cc5F)ccn4)C3)n(C[C@@H]3CCO3)c2c1 (stereo partly drawn) [Example 397, 2-((3-(4-((4-Chloro-2-fluorophenoxy)methyl)pyridin-2-yl)pyrrolidin-1-yl)methyl)-1-(((S)-oxetan-2-yl)methyl)-1H-benzo[d]imidazole-6-carboxylic acid]
15 | < 0.05 µM | N#CCC1(Cn2c(Cc3ccc(Oc4ccnc(COc5ccc(C#N)cc5F)n4)cc3F)nc3ccc(C(=O)O)cc32)CC1 [Compound 468, 2-{[4-({2-[(4-cyano-2-fluorophenoxy)methyl]pyrimidin-4-yl}oxy)-2-fluorophenyl]methyl}-1-{[1-(cyanomethyl)cyclopropyl]methyl}-1H-1,3-benzodiazole-6-carboxylic acid]
16 | < 0.05 µM | CCn1cncc1Cn1c(CN2CC(Oc3cccc(COc4ccc(Cl)cc4C#N)c3)C2)nc2ccc(C(=O)O)cc21 [Compound 212, 2-[(3-{3-[(4-chloro-2-cyanophenoxy)methyl]phenoxy}azetidin-1-yl)methyl]-1-[(1-ethyl-1H-imidazol-5-yl)methyl]-1H-1,3-benzodiazole-6-carboxylic acid]
17 | < 0.05 µM | O=C(O)c1ccc2nc(CN3CC=C(c4cc(COc5ccc(Cl)cc5Cl)ccn4)C3)n(Cc3cnco3)c2c1 [Example 390, 2-((3-(4-((2,4-Dichlorophenoxy)methyl)pyridin-2-yl)-2,5-dihydro-1H-pyrrol-1-yl)methyl)-1-(oxazol-5-ylmethyl)-1H-benzo[d]imidazole-6-carboxylic acid]
18 | < 0.05 µM | O=C(O)c1ccc2nc(CN3CC(Oc4cccc(COc5ccc(Cl)cc5Cl)c4)C3)n(Cc3ncco3)c2c1 [Compound 228, 2-[(3-{3-[(2,4-dichlorophenoxy)methyl]phenoxy}azetidin-1-yl)methyl]-1-[(1,3-oxazol-2-yl)methyl]-1H-1,3-benzodiazole-6-carboxylic acid]
19 | < 0.05 µM | N#Cc1ccc(OCc2ccc(F)c(C3CCN(Cc4nc5ccc(C(=O)O)cc5n4C[C@@H]4CCO4)C3)n2)c(F)c1 (stereo partly drawn) [Compound 520, 2-[(3-{6-[(4-cyano-2-fluorophenoxy)methyl]-3-fluoropyridin-2-yl}pyrrolidin-1-yl)methyl]-1-{[(2S)-oxetan-2-yl]methyl}-1H-1,3-benzodiazole-6-carboxylic acid]
20 | < 0.05 µM | N#Cc1ccc(OCc2nccc(Oc3ccc(Cc4nc5c(F)cc(C(=O)O)cc5n4C[C@@H]4CCO4)c(F)c3)n2)c(F)c1 [Compound 467]
